Source: ChEMBL document CHEMBL5214948, “Boronic Acid: A Novel Pharmacophore Targeting Src Homology 2 (SH2) Domain of STAT3” (J Med Chem, 2022)
The source made the active and inactive calls. The calls are words filed in the database; no cut-off is given here.

Tests used:
MGC-803 [1] = assay: Antitumor activity against human MGC-803 cells xenografted in BALB/c nude mouse assessed as tumor growth inhibition at 15 mg/kg, ip measured every day for 20 days; assay type: functional; parameters: scale not given: the % may be the effect or the level left; conditions: time 20 day
[2] = molecular target: T1, Signal transducer and activator of transcription 3 (Homo sapiens, UniProt P40763); assay: Inhibition of STAT3 transcriptional activity transfected in HEK293T cells at 3 to 5 uM incubated for 24 hrs by dual-ludferase reporter gene assay; assay type: cell-based; conditions: dose 3-5 µM
MGC-803 [3] = assay: Antiproliferative activity against human MGC-803 cells assessed as reduction in cell viability measured after 72 hrs by CCK-8 assay; assay type: functional, cell-based; conditions: MGC-803, 72 h
MGC-803 [4] = assay: Antiproliferative activity against human MGC-803 cells assessed as reduction in cell viability pretreated for 12 hrs followed by compound washout and measured after 24 hrs; assay type: functional, cell-based
[5] = molecular target: T1, Signal transducer and activator of transcription 3; assay: Binding affinity to full length wild type STAT3-SH2 domain (unknown origin) in human MGC-803 cells assessed as thermal stabilization of protein at 37 to 53 degreeC at 5 uM incubated for 3 hrs by cellular thermal shift assay; assay type: cell-based
[6] = molecular target: T1, Signal transducer and activator of transcription 3; assay: Binding affinity to full length wild type STAT3-SH2 domain (unknown origin) assessed as association constant by SPR analysis
[7] = Toxicity in BALB/c nude mouse xenografted with MGC-803 cells assessed as effect on body weight at 5 mg/kg, ip measured every day for 20 days; assay type: organism-based; conditions: in vivo, 480 h, time 20 day
MGC-803 [8] = assay: Induction of apoptosis in human MGC-803 cells at 5 uM incubated for 72 hrs by V-FITC/PI staining based flow cytometry assay; assay type: functional
[9] = Toxicity in BALB/c nude mouse xenografted with MGC-803 cells assessed as effect on body weight at 15 mg/kg, ip measured every day for 20 days; assay type: organism-based; conditions: in vivo, 480 h, time 20 day
AGS [10] = assay: Induction of apoptosis in human AGS cells at 3 uM incubated for 72 hrs by V-FITC/PI staining based flow cytometry assay; assay type: functional
[11] = Antiproliferative activity against […] H9c2 cells assessed as reduction in cell viability incubated for 72 hrs by CCK-8 assay; assay type: toxicity, cell-based; conditions: rat
AGS [12] = assay: Antiproliferative activity against human AGS cells assessed as reduction in cell viability incubated for 72 hrs by CCK-8 assay; assay type: functional, cell-based

T1 sequence (P40763 whole entry): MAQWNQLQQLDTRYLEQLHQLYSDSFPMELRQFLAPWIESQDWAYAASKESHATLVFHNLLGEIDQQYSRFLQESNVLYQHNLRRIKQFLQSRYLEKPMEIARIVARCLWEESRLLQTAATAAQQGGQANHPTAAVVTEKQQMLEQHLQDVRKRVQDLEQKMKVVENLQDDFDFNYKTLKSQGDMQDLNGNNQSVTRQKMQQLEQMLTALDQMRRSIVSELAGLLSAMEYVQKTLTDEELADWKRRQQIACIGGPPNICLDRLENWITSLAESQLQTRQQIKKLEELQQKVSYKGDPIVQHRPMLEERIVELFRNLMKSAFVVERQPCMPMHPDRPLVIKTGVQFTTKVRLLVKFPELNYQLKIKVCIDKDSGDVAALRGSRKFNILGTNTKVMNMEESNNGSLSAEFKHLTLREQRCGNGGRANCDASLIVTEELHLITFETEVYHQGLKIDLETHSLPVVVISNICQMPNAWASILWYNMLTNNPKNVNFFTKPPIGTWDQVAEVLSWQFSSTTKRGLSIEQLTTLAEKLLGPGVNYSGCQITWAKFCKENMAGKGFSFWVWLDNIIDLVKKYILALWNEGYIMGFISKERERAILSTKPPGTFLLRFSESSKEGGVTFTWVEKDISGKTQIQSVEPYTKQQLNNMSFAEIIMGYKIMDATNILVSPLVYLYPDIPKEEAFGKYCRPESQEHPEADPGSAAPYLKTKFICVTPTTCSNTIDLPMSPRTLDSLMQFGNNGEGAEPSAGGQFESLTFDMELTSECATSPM

CN(CC(=O)N(Cc1ccc(C2CCCCC2)cc1)c1ccc(C(=O)O)cc1)S(=O)(=O)c1c(F)c(F)c(F)c(F)c1F
Activity (MGC-803 [1]): 49.05% | inhibition [2]: Active | IC50 (MGC-803 [3]): 8.51 µM | Activity (MGC-803 [4]): Active | Activity [5]: Active | Ka [6]: 3.02 10^3/M/s | Activity [7]: Non-Toxic | Activity (MGC-803 [8]): 5.7% | Activity [9]: Non-Toxic | Activity (AGS [10]): 16.2% | IC50 at 72 h [11]: 10.2 µM | IC50 (AGS [12]): 5.42 µM
